biological target: Human α2δ-1 subunit of Cav2.2 calcium channel (Homo sapiens (Human), UniProt P54289); assay: Human α2δ-1 subunit of Cav2.2 calcium channel assay ([3H]-Gabapentin binding); details: not given
Sequence (P54289 25-1103): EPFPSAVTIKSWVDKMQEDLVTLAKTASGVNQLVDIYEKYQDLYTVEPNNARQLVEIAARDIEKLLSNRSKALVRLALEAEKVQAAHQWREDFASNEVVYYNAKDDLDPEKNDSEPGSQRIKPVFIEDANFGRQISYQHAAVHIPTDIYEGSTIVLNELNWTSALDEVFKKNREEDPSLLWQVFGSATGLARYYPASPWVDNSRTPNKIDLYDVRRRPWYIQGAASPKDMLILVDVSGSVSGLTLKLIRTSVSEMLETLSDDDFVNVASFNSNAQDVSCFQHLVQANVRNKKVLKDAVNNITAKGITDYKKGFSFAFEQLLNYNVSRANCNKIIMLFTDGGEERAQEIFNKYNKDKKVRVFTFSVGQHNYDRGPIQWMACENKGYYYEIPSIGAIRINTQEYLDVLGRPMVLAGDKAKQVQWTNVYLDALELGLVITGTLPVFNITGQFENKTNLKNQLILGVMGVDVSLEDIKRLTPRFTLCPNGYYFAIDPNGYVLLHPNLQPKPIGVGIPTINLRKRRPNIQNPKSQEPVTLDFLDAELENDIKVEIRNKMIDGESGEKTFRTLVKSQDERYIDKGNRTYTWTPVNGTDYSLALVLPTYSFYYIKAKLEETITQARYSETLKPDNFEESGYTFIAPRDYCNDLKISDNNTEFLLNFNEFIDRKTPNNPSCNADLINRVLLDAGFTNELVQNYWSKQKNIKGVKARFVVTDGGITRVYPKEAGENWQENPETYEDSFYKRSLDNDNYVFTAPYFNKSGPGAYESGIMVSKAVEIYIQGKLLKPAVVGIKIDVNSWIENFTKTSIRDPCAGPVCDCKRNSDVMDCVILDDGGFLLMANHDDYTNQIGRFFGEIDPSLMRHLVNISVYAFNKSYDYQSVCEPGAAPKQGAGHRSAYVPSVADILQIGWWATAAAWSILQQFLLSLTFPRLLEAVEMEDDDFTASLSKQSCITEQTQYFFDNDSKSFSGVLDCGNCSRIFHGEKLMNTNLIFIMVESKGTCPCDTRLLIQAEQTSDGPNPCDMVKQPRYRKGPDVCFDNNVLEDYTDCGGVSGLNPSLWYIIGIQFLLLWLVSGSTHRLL

| SMILES | Ki |
| --- | --- |
| O=C(c1cccs1)N(CCNCc1ccccc1)c1ccn(-c2ccccc2)n1 [Example 55, N-[2-(Benzylamino)ethyl]-N-(1-phenyl-1H-pyrazol-3-yl)thiophene-2-carboxamide] | 0.5 to 5 µM |
| CN(CCCN(C(=O)c1cccs1)c1ccn(-c2ccccc2)n1)Cc1ccccc1 [Example 62, N-{3-[Benzyl(methyl)amino]propyl}-N-(1-phenyl-1H-pyrazol-3-yl)thiophene-2-carboxamide] | 0.5 to 5 µM |
| CN1CCCC(N(C(=O)c2cccs2)c2ccn(-c3ccccc3)n2)CC1 (stereo not drawn) [Example 39, N-(1-Methylazepan-4-yl)-N-(1-phenyl-1H-pyrazol-3-yl)thiophene-2-carboxamide] | 0.1 to 0.5 µM |
| CCN(C)CCN(C(=O)c1cccs1)c1ccn(-c2ccccc2)n1 [Example 63] | 0.5 to 5 µM |
| CNCCN(C(=O)c1cccs1)c1ccn(-c2ccccc2)n1 [Example 57, N-[2-(Methylamino)ethyl]-N-(1-phenyl-1H-pyrazol-3-yl)thiophene-2-carboxamide] | 0.5 to 5 µM |
| O=C(c1cccs1)N(c1ccn(-c2ccccc2)n1)C1CCCNC1 (stereo not drawn) [Example 53, N-(1-Phenyl-1H-pyrazol-3-yl)-N-(piperidin-3-yl)thiophene-2-carboxamide] | 0.5 to 5 µM |
| CN(CCN(C(=O)c1cccs1)c1ccn(-c2ccccc2)n1)Cc1ccccc1 [Example 61, N-{2-[Benzyl(methyl)amino]ethyl}-N-(1-phenyl-1H-pyrazol-3-yl)thiophene-2-carboxamide] | 0.5 to 5 µM |
| CCNCCN(C(=O)c1cccs1)c1ccn(-c2ccccc2)n1 [Example 68, N-[2-(Ethylamino)ethyl]-N-(1-phenyl-1H-pyrazol-3-yl)thiophene-2-carboxamide] | 0.5 to 5 µM |
| Cc1nnc(-c2cccc(-n3ccc(N(CCN(C)Cc4ccccc4)C(=O)c4cccs4)n3)c2)o1 [Example 69, N-{2-[Benzyl(methyl)amino]ethyl}-N-{1-[3-(5-methyl-1,3,4-oxadiazol-2-yl)phenyl]-1H-pyrazol-3-yl}thiophene-2-carboxamide] | 0.1 to 0.5 µM |
| O=C(c1cccs1)N(CCCNCc1ccccc1)c1ccn(-c2ccccc2)n1 [Example 56, N-[3-(Benzylamino)propyl]-N-(1-phenyl-1H-pyrazol-3-yl)thiophene-2-carboxamide] | 0.5 to 5 µM |

same assay, conditions: [3H]-Gabapentin binding; read-out: α2δ − 1 (Ki)

| SMILES | Ki |
| --- | --- |
| Cc1nnc(-c2cccc(-n3ccc(N(C(=O)c4cccs4)[C@H]4CC[C@H](N(C)C)CC4)n3)c2)o1 [Example 149, N-[(1r,4r)-4-(Dimethylamino)cyclohexyl]-N-{1-[3-(5-methyl-1,3,4-oxadiazol-2-yl)phenyl]-1H-pyrazol-3-yl}thiophene-2-carboxamide] | > 5 µM |
| Cc1nnc(-c2cccc(-n3ccc(N(C(=O)c4cccc(O)c4)[C@H]4CC[C@H](N(C)C)CC4)n3)c2)o1 [Example 150, N-[(1r,4r)-4-(Dimethylamino)cyclohexyl]-3-hydroxy-N-{1-[3-(5-methyl-1,3,4-oxadiazol-2-yl)phenyl]-1H-pyrazol-3-yl}benzamide] | > 5 µM |
| CN(CCN(C(=O)c1cccs1)c1ccn(-c2ccccc2)n1)Cc1ccncc1 [Example 64, N-{2-[Methyl(pyridin-4-ylmethyl)amino]ethyl}-N-(1-phenyl-1H-pyrazol-3-yl)thiophene-2-carboxamide] | > 5 µM |
| CN(CCN(C(=O)c1cccs1)c1ccn(-c2ccccc2)n1)Cc1cccnc1 [Example 65] | 0.5 to 5 µM |
| Cc1nnc(-c2cccc(-n3ccc(N(C(=O)c4cccs4)[C@H]4CC[C@H](N(C)Cc5ccccc5)CC4)n3)c2)o1 [Example 151, N-{(1r,4r)-4-[Benzyl(methyl)amino]cyclohexyl}-N-{1-[3-(5-methyl-1,3,4-oxadiazol-2-yl)phenyl]-1H-pyrazol-3-yl}thiophene-2-carboxamide] | > 5 µM |
| Cc1nnc(-c2cccc(-n3ccc(N(C(=O)c4cccc(O)c4)[C@H]4CC[C@H](N(C)Cc5ccccc5)CC4)n3)c2)o1 [Example 153, N-{(1r,4r)-4-[Benzyl(methyl)amino]cyclohexyl}-3-hydroxy-N-{1-[3-(5-methyl-1,3,4-oxadiazol-2-yl)phenyl]-1H-pyrazol-3-yl}benzamide] | > 5 µM |
| CN(Cc1ccccc1)C1CCC(N(C(=O)c2cccs2)c2ccn(-c3ccccc3)n2)CC1 (stereo not drawn) [Example 128, N-{4-[Benzyl(methyl)amino]cyclohexyl}-N-(1-phenyl-1H-pyrazol-3-yl)thiophene-2-carboxamide] | > 5 µM |
| Cc1nnc(-c2cccc(-n3ccc(N(C(=O)c4cccs4)[C@H]4CC[C@@H](N(C)Cc5ccccc5)CC4)n3)c2)o1 [Example 152, N-{(1s,4s)-4-[Benzyl(methyl)amino]cyclohexyl}-N-{1-[3-(5-methyl-1,3,4-oxadiazol-2-yl)phenyl]-1H-pyrazol-3-yl}thiophene-2-carboxamide] | > 5 µM |
| Cc1nnc(-c2cccc(-n3ccc(N(C(=O)c4cccc(O)c4)[C@H]4CC[C@@H](N(C)Cc5ccccc5)CC4)n3)c2)o1 [Example 154, N-{(1s,4s)-4-[Benzyl(methyl)amino]cyclohexyl}-3-hydroxy-N-{1-[3-(5-methyl-1,3,4-oxadiazol-2-yl)phenyl]-1H-pyrazol-3-yl}benzamide] | > 5 µM |
| CN(C)C1CCC(N(C(=O)c2cccs2)c2ccn(-c3ccccc3)n2)CC1 (stereo not drawn) [Example 127, N-[4-(Dimethylamino)cyclohexyl]-N-(1-phenyl-1H-pyrazol-3-yl)thiophene-2-carboxamide] | > 5 µM |

same assay, conditions: read-out: α2δ − 1 (Ki)

| SMILES | Ki |
| --- | --- |
| CN1CCCC(N(C(=O)c2cccs2)c2ccn(-c3ccccc3)n2)C1 (stereo not drawn) [Example 67, N-(1-Methylpiperidin-3-yl)-N-(1-phenyl-1H-pyrazol-3-yl)thiophene-2-carboxamide] | > 5 µM |
